Test results: ChEMBL document CHEMBL1146548, “New anthracene derivatives from Coussarea macrophylla” (J Nat Prod, 2003)

What was measured:
Staphylococcus aureus = experiment: Antibacterial activity against Staphylococcus aureus at 19 ug/disk by standard filter disk assay; type: functional; conditions: read-out: IZ
Artemia salina = experiment: Toxicity against Artemia salina; type: organism-based; conditions: in vivo

Structure (SMILES) | zone of inhibition at 19 µg/disc (Staphylococcus aureus) | LC50 (Artemia salina)
COc1c(C=O)cc(OC)c2c(OC)c3ccccc3cc12 | 12 mm | > 280 ppm
COCc1c(OC)cc2c(c1OC)C(=O)c1ccccc1C2=O | – | > 280 ppm
